Measurements: patent publication US20230277534A1 (Plexxikon Inc., priority 2011, published 2023)

What was measured:
[1] = test system: COLO205 colon adenocarcinoma cells (B-Raf V600E mutation); test: COLO205 cell growth inhibition (ATPlite); type: cell-based; conditions: Homo sapiens, COLO 205, 72 h, 3 days
Outline: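 Cells treated for 3 days at 37 °C, 5% CO2 with an 8-point 1:3 dilution series, top final concentration 10 μM, DMSO control. ATPlite luminescence used as a measure of cell number; IC50 from reading versus concentration.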

B-Raf V600E = B-Raf V600E (Homo sapiens (Human), UniProt P15056, V600E); test: B-Raf V600E kinase biochemical activity assay (AlphaScreen, biotin-MEK1 substrate); conditions: 100 μM ATP
Outline: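 B-Raf V600E (0.1 ng) phosphorylated 100 nM biotin-MEK1 with 100 μM ATP (final) in HEPES pH 7.0 with Mg2+/Mn2+ for 45 min at room temperature. Compounds were tested over an 8-point serial dilution. Phospho-MEK1/2 was detected by AlphaScreen after 3 h with beads, and IC50 came from signal versus concentration.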

Chain of B-Raf V600E (P15056 whole entry V600E): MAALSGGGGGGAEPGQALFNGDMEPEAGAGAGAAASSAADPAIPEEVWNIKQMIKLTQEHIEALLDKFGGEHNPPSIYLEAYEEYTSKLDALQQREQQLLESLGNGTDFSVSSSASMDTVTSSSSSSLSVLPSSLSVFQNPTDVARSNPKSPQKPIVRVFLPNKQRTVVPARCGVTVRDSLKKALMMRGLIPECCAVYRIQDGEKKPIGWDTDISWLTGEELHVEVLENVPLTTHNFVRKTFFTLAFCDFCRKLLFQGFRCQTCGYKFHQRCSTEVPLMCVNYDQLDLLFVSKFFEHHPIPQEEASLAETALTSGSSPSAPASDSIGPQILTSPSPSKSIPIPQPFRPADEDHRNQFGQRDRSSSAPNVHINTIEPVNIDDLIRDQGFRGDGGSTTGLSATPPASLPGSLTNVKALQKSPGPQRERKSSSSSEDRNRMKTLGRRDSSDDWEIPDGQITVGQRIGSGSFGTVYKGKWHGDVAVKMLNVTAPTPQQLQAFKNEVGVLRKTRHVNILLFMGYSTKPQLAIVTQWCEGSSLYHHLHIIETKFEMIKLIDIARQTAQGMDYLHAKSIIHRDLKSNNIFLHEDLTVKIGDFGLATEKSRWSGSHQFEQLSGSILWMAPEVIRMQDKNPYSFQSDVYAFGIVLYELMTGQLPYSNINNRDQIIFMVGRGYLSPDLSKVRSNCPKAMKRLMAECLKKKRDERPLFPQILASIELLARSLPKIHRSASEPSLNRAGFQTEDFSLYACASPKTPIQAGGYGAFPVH

IC50 [1] [µM] | IC50 (B-Raf V600E) [µM] | Compound
< 1 | < 0.1 | CCN(C)S(=O)(=O)Nc1ccc(F)c(C(=O)c2c[nH]c3ncc(-c4ccc(OC)nn4)cc23)c1F [Compound P-0317, 3-[3-[[ethyl(methyl)sulfamoyl]amino]-2,6-difluoro-benzoyl]-5-(6-methoxypyridazin-3-yl)-1H-pyrrolo[2,3-b]pyridine]
< 1 | < 0.1 | C[C@@H]1CCN(S(=O)(=O)Nc2cccc(C(=O)c3c[nH]c4ncc(-c5cnc(C6CC6)nc5)cc34)c2F)C1 [Compound P-0271, (3R)—N-[3-[5-(2-cyclopropylpyrimidin-5-yl)-1H-pyrrolo[2,3-b]pyridine-3-carbonyl]-2-fluoro-phenyl]-3-methyl-pyrrolidine-1-sulfonamide]
> 1 | < 0.1 | CCC(C)S(=O)(=O)Nc1ccc(F)c(C(=O)c2c[nH]c3ncc(-c4ccc(Cl)cc4)cc23)c1F (stereo not drawn) [Compound P-0337, N-[3-[5-(4-chlorophenyl)-1H-pyrrolo[2,3-b]pyridine-3-carbonyl]-2,4-difluoro-phenyl]butane-2-sulfonamide]
< 1 | < 0.1 | CCC(C)S(=O)(=O)Nc1cccc(C(=O)c2c[nH]c3ncc(-c4cnc(N5CCOCC5)nc4)cc23)c1F (stereo not drawn) [Compound P-0236, N-[2-fluoro-3-[5-(2-morpholinopyrimidin-5-yl)-1H-pyrrolo[2,3-b]pyridine-3-carbonyl]phenyl]butane-2-sulfonamide]
< 1 | < 0.1 | CCN(C)S(=O)(=O)Nc1ccc(F)c(C(=O)c2c[nH]c3ncc(-c4csc(C(C)(C)O)n4)cc23)c1F [Compound P-0316, 4-[3-[3-[[ethyl(methyl)sulfamoyl]amino]-2,6-difluoro-benzoyl]-1H-pyrrolo[2,3-b]pyridin-5-yl]-2-(1-hydroxy-1-methyl-ethyl)thiazole]
< 1 | < 0.1 | CCN(C)S(=O)(=O)Nc1ccc(F)c(C(=O)c2c[nH]c3ncc(-c4cnc(N5CCOCC5)nc4)cc23)c1F [Compound P-0258, 4-[5-[3-[3-[[ethyl(methyl)sulfamoyl]amino]-2,6-difluoro-benzoyl]-1H-pyrrolo[2,3-b]pyridin-5-yl]pyrimidin-2-yl]morpholine]
< 1 | < 0.1 | CCCN(C)S(=O)(=O)Nc1cccc(C(=O)c2c[nH]c3ncc(-c4ccc(C5CC5)nc4)cc23)c1F [Compound P-0114, 5-(6-cyclopropyl-3-pyridyl)-3-[2-fluoro-3-[[methyl(propyl)sulfamoyl]amino]benzoyl]-1H-pyrrolo[2,3-b]pyridine]
< 1 | < 0.1 | CCN(C)S(=O)(=O)Nc1ccc(F)c(C(=O)c2c[nH]c3ncc(-c4ccc(-c5nnc(C)o5)cc4)cc23)c1F [Compound P-0304, 2-[4-[3-[3-[[ethyl(methyl)sulfamoyl]amino]-2,6-difluoro-benzoyl]-1H-pyrrolo[2,3-b]pyridin-5-yl]phenyl]-5-methyl-1,3,4-oxadiazole]
< 1 | < 0.1 | CC1CCN(S(=O)(=O)Nc2cccc(C(=O)c3c[nH]c4ncc(-c5cnc(C6CC6)nc5)cc34)c2F)C1 (stereo not drawn) [Compound P-0247, N-[3-[5-(2-cyclopropylpyrimidin-5-yl)-1H-pyrrolo[2,3-b]pyridine-3-carbonyl]-2-fluoro-phenyl]-3-methyl-pyrrolidine-1-sulfonamide]
< 1 | < 0.1 | O=C(c1cccc(NS(=O)(=O)N2CCCC2)c1F)c1c[nH]c2ncc(-c3ccc(C(F)(F)F)nc3)cc12 [Compound P-0095, N-[2-fluoro-3-[5-[6-(trifluoromethyl)-3-pyridyl]-1H-pyrrolo[2,3-b]pyridine-3-carbonyl]phenyl]pyrrolidine-1-sulfonamide]
< 1 | < 0.1 | Cc1ncc(-c2cnc3[nH]cc(C(=O)c4cccc(NS(=O)(=O)N5CCCC5)c4F)c3c2)cn1 [Compound P-0092, N-[2-fluoro-3-[5-(2-methylpyrimidin-5-yl)-1H-pyrrolo[2,3-b]pyridine-3-carbonyl]phenyl]pyrrolidine-1-sulfonamide]
< 1 | < 0.1 | CN1CCN(c2cc(-c3cnc4[nH]cc(C(=O)c5cccc(NS(=O)(=O)N6CCCC6)c5F)c4c3)ncn2)CC1 [Compound P-0322, N-[2-fluoro-3-[5-[6-(4-methylpiperazin-1-yl)pyrimidin-4-yl]-1H-pyrrolo[2,3-b]pyridine-3-carbonyl]phenyl]pyrrolidine-1-sulfonamide]
> 1 | > 0.1 | CCCNS(=O)(=O)Nc1cccc(C(=O)c2c[nH]c3ncc(I)cc23)c1F [Compound P-0117, [2-fluoro-3-(propylsulfamoylamino)phenyl]-(5-iodo-1H-pyrrolo[2,3-b]pyridin-3-yl)methanone]
< 1 | < 0.1 | CCN(C)S(=O)(=O)Nc1cccc(C(=O)c2c[nH]c3ncc(-c4ccc(N(C)C)nc4)cc23)c1F [Compound P-0076, 5-[6-(dimethylamino)-3-pyridyl]-3-[3-[[ethyl(methyl)sulfamoyl]amino]-2-fluoro-benzoyl]-1H-pyrrolo[2,3-b]pyridine]
> 1 | < 0.1 | CCCN(C)S(=O)(=O)Nc1ccc(F)c(C(=O)c2c[nH]c3ncc(-c4cnc(C5CC5)nc4)cc23)c1F [Compound P-0078, 5-(2-cyclopropylpyrimidin-5-yl)-3-[2,6-difluoro-3-[[methyl(propyl)sulfamoyl]amino]benzoyl]-1H-pyrrolo[2,3-b]pyridine]
> 1 | < 0.1 | COc1ncc(-c2cnc3[nH]cc(C(=O)c4cccc(NS(=O)(=O)N5CC(F)(F)C5)c4F)c3c2)cn1 [Compound P-0088, 3,3-difluoro-N-[2-fluoro-3-[5-(2-methoxypyrimidin-5-yl)-1H-pyrrolo[2,3-b]pyridine-3-carbonyl]phenyl]azetidine-1-sulfonamide]
> 1 | < 0.1 | CCCNS(=O)(=O)Nc1cccc(C(=O)c2c[nH]c3ncc(-c4cnn(C)c4)cc23)c1F [Compound P-0242, [2-fluoro-3-(propylsulfamoylamino)phenyl]-[5-(1-methylpyrazol-4-yl)-1H-pyrrolo[2,3-b]pyridin-3-yl]methanone]
< 1 | < 0.1 | Nc1ncc(-c2cnc3[nH]cc(C(=O)c4c(F)ccc(NS(=O)(=O)N5CCCC5)c4F)c3c2)cn1 [Compound P-0279, N-[3-[5-(2-aminopyrimidin-5-yl)-1H-pyrrolo[2,3-b]pyridine-3-carbonyl]-2,4-difluoro-phenyl]pyrrolidine-1-sulfonamide]
< 1 | < 0.1 | CCN(C)S(=O)(=O)Nc1ccc(F)c(C(=O)c2c[nH]c3ncc(-c4cncs4)cc23)c1F [Compound P-0315, 5-[3-[3-[[ethyl(methyl)sulfamoyl]amino]-2,6-difluoro-benzoyl]-1H-pyrrolo[2,3-b]pyridin-5-yl]thiazole]
< 1 | < 0.1 | O=C(c1c(F)ccc(NS(=O)(=O)N2CC[C@@H](F)C2)c1F)c1c[nH]c2ncc(-c3cnc(C4CC4)nc3)cc12 [Compound P-0338, (3R)—N-[3-[5-(2-cyclopropylpyrimidin-5-yl)-1H-pyrrolo[2,3-b]pyridine-3-carbonyl]-2,4-difluoro-phenyl]-3-fluoro-pyrrolidine-1-sulfonamide]
< 1 | < 0.1 | CCN(C)S(=O)(=O)Nc1ccc(F)c(C(=O)c2c[nH]c3ncc(-c4cnc(N5CCNCC5)nc4)cc23)c1F [Compound P-0268, 3-[3-[[ethyl(methyl)sulfamoyl]amino]-2,6-difluoro-benzoyl]-5-(2-piperazin-1-ylpyrimidin-5-yl)-1H-pyrrolo[2,3-b]pyridine]
< 1 | < 0.1 | CCCN(C)S(=O)(=O)Nc1ccc(F)c(C(=O)c2c[nH]c3ncc(-c4cnc(OC)nc4)cc23)c1F [Compound P-0116, 3-[2,6-difluoro-3-[[methyl(propyl)sulfamoyl]amino]benzoyl]-5-(2-methoxypyrimidin-5-yl)-1H-pyrrolo[2,3-b]pyridine]
< 1 | < 0.1 | CN(C)S(=O)(=O)Nc1cccc(C(=O)c2c[nH]c3ncc(-c4cncc(C#N)c4)cc23)c1F [Compound P-0098, 5-(5-cyano-3-pyridyl)-3-[3-(dimethylsulfamoylamino)-2-fluoro-benzoyl]-1H-pyrrolo[2,3-b]pyridine]
> 1 | < 0.1 | COCCN(C)S(=O)(=O)Nc1cccc(C(=O)c2c[nH]c3ncc(-c4cnc(C5CC5)nc4)cc23)c1F [Compound P-0085, 5-(2-cyclopropylpyrimidin-5-yl)-3-[2-fluoro-3-[[2-methoxyethyl(methyl)sulfamoyl]amino]benzoyl]-1H-pyrrolo[2,3-b]pyridine]
< 1 | < 0.1 | CCN(C)S(=O)(=O)Nc1ccc(F)c(C(=O)c2c[nH]c3ncc(-c4ccc(-c5noc(C)n5)s4)cc23)c1F [Compound P-0310, 3-[5-[3-[3-[[ethyl(methyl)sulfamoyl]amino]-2,6-difluoro-benzoyl]-1H-pyrrolo[2,3-b]pyridin-5-yl]-2-thienyl]-5-methyl-1,2,4-oxadiazole]
< 1 | < 0.1 | CCN(C)S(=O)(=O)Nc1ccc(F)c(C(=O)c2c[nH]c3ncc(-c4ccc(C(C)(C)O)nc4)cc23)c1F [Compound P-0307, 3-[3-[[ethyl(methyl)sulfamoyl]amino]-2,6-difluoro-benzoyl]-5-[6-(1-hydroxy-1-methyl-ethyl)-3-pyridyl]-1H-pyrrolo[2,3-b]pyridine]

Compound | IC50 [1] [µM] | IC50 (B-Raf V600E) [µM]
CCN(C)S(=O)(=O)Nc1cccc(C(=O)c2c[nH]c3ncc(-c4cncc(C#N)c4)cc23)c1F [Compound P-0101, 5-(5-cyano-3-pyridyl)-3-[3-[[ethyl(methyl)sulfamoyl]amino]-2-fluoro-benzoyl]-1H-pyrrolo[2,3-b]pyridine] | > 1 | < 0.1
